Data taken from US20050182051A1, “Fungicidal mixtures based on benzamidoxime derivative and a strobilurin derivative” (priority 2002, published 2005).

Test system: Erysiphe [syn. Blumeria] graminis forma specialis. tritici
Test: Activity against mildew of wheat (protective spray test on potted wheat seedlings)
Type: in vivo
Details: wheat seedlings cv. Kanzler, rated after 7 days
Method: The active compounds, separately or together, were formulated as a 10% emulsion in a mixture of 63% by weight of cyclohexanone and 27% by weight of emulsifier, and diluted with water to the desired concentration.
Evaluation was carried out by determining the infected leaf areas in percent. These percentages were converted into efficacies. The efficacy (w) was calculated as follows using Abbot's formula: [formula] • α corresponds to the fungal infection of the treated plants in % and • β corresponds to the fungal infection of the untreated (control) plants in %
An efficacy of 0 means that the infection level of the treated plants corresponds to that of the untreated control plants; an efficacy of 100 means that the treated plants were not infected.
The expected efficacies of the mixtures of the active compounds were determined using Colby's formula [R. S. Colby, Weeds 15, 20-22 (1967)] and compared with the observed efficacies. E =x+y−x·y/100 Colby's formula: • E expected efficacy, expressed in % of the untreated control, when using the mixture of the active compounds A and B at the concentrations a and b • x efficacy, expressed in % of the untreated control, when using active compound A at a concentration of a • y efficacy, expressed in % of the untreated control, when using active compound B at a concentration of b
Activity Against Mildew of Wheat Caused by Erysiphe [syn. Blumeria] graminis forma Specialis. tritici
Leaves of wheat seedlings of the cultivar “Kanzler” grown in pots were sprayed to runoff point with an aqueous preparation of active compound which had been prepared from a stock solution comprising 10% of active compound, 85% of cyclohexanone and 5% of emulsifier. 24 hours after the spray coating had dried on, the plants were dusted with spores of mildew of wheat (Erysiphe [syn. Blumeria] graminis forma specialis. tritici). The test plants were then placed in a greenhouse at 20-24° C. and 60-90% relative atmospheric humidity. After 7 days, the extent of the mildew development was determined visually in % infection of the entire leaf area.
The visually determined values for the percentage of infected leaf areas were converted into efficacies in % of the untreated control. An efficacy of 0 means the same degree of infection as in the untreated control, an efficacy of 100 means 0% infection. The expected efficacies for combinations of active compounds were determined using Colby's formula (Colby, S. R. (Calculating synergistic and antagonistic responses of herbicide Combinations”, Weeds, 15, p. 20-22, 1967) and compared to the observed effacacies.

[1] = 1 ppm in the spray liquor, inoculated 24 h after spraying

Measured: Efficacy in % of the untreated control

CO/N=C(/C(=O)OC)c1ccccc1COc1ccccc1C [kresoxim-methyl]
0%: 0.06 ppm in the spray liquor | 0.25 ppm in the spray liquor | [1]

COC(=O)N(OC)c1ccccc1COc1ccn(-c2ccc(Cl)cc2)n1 [pyraclostrobin]
0%: 0.06 ppm in the spray liquor | 0.25 ppm in the spray liquor | [1]

CO/C=C(/C(=O)OC)c1ccccc1Oc1cc(Oc2ccccc2C#N)ncn1 [azoxystrobin]
0%: 0.015 ppm in the spray liquor | 0.25 ppm in the spray liquor | [1]
